ChEMBL document CHEMBL1201862, “PubChem BioAssay data set” (2004)
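Dose response: 5 concentrations. Exposure: 48 h. Format: 96-well plates. Endpoint: linear interpolation; highest concentration if not reached. The concentration for 50% growth inhibition is given as GI50.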 Active and inactive are the calls of the source. No stated cut-off is given here; in the data, active = GI50 up to about 1.1 µM and inactive = higher.

How the values were obtained:
Test in all cases: NCI anticancer screen, dose series, 48 h
[1] = system: A498
[2] = system: DU-145
[3] = system: HCT-116
[4] = system: HCT-15
[5] = system: HOP-92
[6] = system: Malme-3M
[7] = system: SF-268
[8] = system: SF-295
[9] = system: SF-539
[10] = system: SN12C
[11] = system: SNB-19
[12] = system: SR
[13] = system: TK-10
[14] = system: U-251
[15] = system: NCI-H522
[16] = system: OVCAR-4
[17] = system: SK-OV-3
[18] = system: SNB-75
[19] = system: UACC-62
[20] = system: CAKI-1

Row | SMILES | GI50 [1] | GI50 [2] | GI50 [3] | GI50 [4] | GI50 [5] | GI50 [6] | GI50 [7] | GI50 [8] | GI50 [9] | GI50 [10] | GI50 [11] | GI50 [12] | GI50 [13] | GI50 [14] | GI50 [15] | GI50 [16] | GI50 [17] | GI50 [18] | GI50 [19] | GI50 [20]
1 | Cc1cc(C)c(N[S+]([O-])c2ccc(Cl)cc2)c(C)c1 (stereo not drawn) | > 100 µM (inactive) | > 100 µM (inactive) | > 100 µM (inactive) | > 100 µM | 68.7 µM (inactive) | > 100 µM (inactive) | > 100 µM (inactive) | > 100 µM (inactive) | > 100 µM (inactive) | > 100 µM (inactive) | > 100 µM (inactive) | > 100 µM (inactive) | > 100 µM (inactive) | > 100 µM (inactive) | – | – | – | – | – | –
2 | CC1(C)CCCCC1/C=C/C(CC(O)(C(F)(F)F)C(F)(F)F)=N\Nc1ccc([N+](=O)[O-])cc1[N+](=O)[O-] (stereo not drawn) | 1.25 µM (inactive) | 2.52 µM (inactive) | 0.587 µM (active) | 1.32 µM | – | 4.51 µM (inactive) | 0.527 µM (active) | 2.42 µM (inactive) | 0.292 µM (active) | 2.13 µM (inactive) | 4.5 µM (inactive) | 0.518 µM (active) | 0.546 µM (active) | 2.33 µM (inactive) | 0.49 µM (active) | 1.35 µM (inactive) | 0.979 µM (active) | 1.31 µM (inactive) | 1.02 µM (active) | –
3 | c1cc(-c2cscc2-c2ccsc2)cs1 | > 100 µM (inactive) | > 100 µM (inactive) | 40.5 µM (inactive) | 29.4 µM | > 100 µM (inactive) | – | 58.2 µM (inactive) | 83.4 µM (inactive) | 17.8 µM (inactive) | > 100 µM (inactive) | – | 27.5 µM (inactive) | 88.5 µM (inactive) | > 100 µM (inactive) | – | 37.8 µM (inactive) | > 100 µM (inactive) | 12.3 µM (inactive) | 47.3 µM (inactive) | > 100 µM (inactive)
4 | Cc1c(CN2CCN(C)CC2)c(CN2CCN(C)CC2)c(C)n1-c1ccc(Cl)cc1 | 13.6 µM (inactive) | > 100 µM (inactive) | 27.7 µM (inactive) | 47 µM | – | 20.9 µM (inactive) | 44.4 µM (inactive) | 21.2 µM (inactive) | – | > 100 µM (inactive) | > 100 µM (inactive) | 17.4 µM (inactive) | 17.5 µM (inactive) | 40.2 µM (inactive) | 20.5 µM (inactive) | 79.1 µM (inactive) | > 100 µM (inactive) | 25.9 µM (inactive) | 16.7 µM (inactive) | 25.1 µM (inactive)
5 | O=C1OC(c2ccccc2)N/C1=C\c1ccc2c(c1)OCO2 (stereo not drawn) | – | > 100 µM (inactive) | > 100 µM (inactive) | > 100 µM | > 100 µM (inactive) | – | > 100 µM (inactive) | > 100 µM (inactive) | 29.4 µM (inactive) | > 100 µM (inactive) | > 100 µM (inactive) | 28.1 µM (inactive) | > 100 µM (inactive) | 59.3 µM (inactive) | 35.6 µM (inactive) | 36.7 µM (inactive) | > 100 µM (inactive) | 98.9 µM (inactive) | > 100 µM (inactive) | > 100 µM (inactive)
6 | CC(=O)O[C@H]1CCC2[C@@H]3CCC4NC(=O)C(C#N)C[C@]4(C)C3CC[C@@]21C (stereo partly drawn) | > 10 µM (inactive) | > 10 µM (inactive) | > 10 µM (inactive) | > 10 µM | > 10 µM (inactive) | > 10 µM (inactive) | > 10 µM (inactive) | > 10 µM (inactive) | > 10 µM (inactive) | > 10 µM (inactive) | > 10 µM (inactive) | > 10 µM (inactive) | > 10 µM (inactive) | > 10 µM (inactive) | – | > 10 µM (inactive) | > 10 µM (inactive) | – | > 10 µM (inactive) | > 10 µM (inactive)
7 | CC(C)SC(C)(NC(=O)C1C(C)(C)CCC1(C)C)C(=O)O (stereo not drawn) | > 100 µM (inactive) | > 100 µM (inactive) | > 100 µM (inactive) | > 100 µM | > 100 µM (inactive) | – | > 100 µM (inactive) | – | > 100 µM (inactive) | > 100 µM (inactive) | > 100 µM (inactive) | > 100 µM (inactive) | > 100 µM (inactive) | > 100 µM (inactive) | – | – | > 100 µM (inactive) | > 100 µM (inactive) | – | –
8 | COC(=O)C1(Cc2cccc(Cl)c2)CCCCCCN1C(=O)c1ccccc1 (stereo not drawn) | 15.4 µM (inactive) | 19.3 µM (inactive) | 13.1 µM (inactive) | 11.5 µM | 14.3 µM (inactive) | 12.2 µM (inactive) | 20.6 µM (inactive) | 6.98 µM (inactive) | – | 14.5 µM (inactive) | 15.1 µM (inactive) | 13.9 µM (inactive) | 12 µM (inactive) | 15.4 µM (inactive) | – | 14.5 µM (inactive) | 19.2 µM (inactive) | 13 µM (inactive) | 11.1 µM (inactive) | –
9 | O=C(Nc1ccccc1)C(=O)C(C(=O)c1ccccc1)C(c1ccccc1)c1ccccc1 (stereo not drawn) | – | > 10 µM (inactive) | – | > 10 µM | > 10 µM (inactive) | > 10 µM (inactive) | > 10 µM (inactive) | > 10 µM (inactive) | – | > 10 µM (inactive) | – | > 10 µM (inactive) | > 10 µM (inactive) | – | – | > 10 µM (inactive) | > 10 µM (inactive) | > 10 µM (inactive) | > 10 µM (inactive) | > 10 µM (inactive)
10 | Cc1cn(CCOCCOC(=O)NC(CCCNC(=N)N)C(=O)O)c(=O)[nH]c1=O (stereo not drawn) | > 100 µM (inactive) | > 100 µM (inactive) | > 100 µM (inactive) | > 100 µM | > 100 µM (inactive) | – | > 100 µM (inactive) | > 100 µM (inactive) | > 100 µM (inactive) | > 100 µM (inactive) | > 100 µM (inactive) | > 100 µM (inactive) | > 100 µM (inactive) | > 100 µM (inactive) | – | > 100 µM (inactive) | > 100 µM (inactive) | > 100 µM (inactive) | > 100 µM (inactive) | –
11 | O=c1cc(N2CCCC2)[nH]c(=O)n1Cc1ccccc1 | – | > 100 µM (inactive) | > 100 µM (inactive) | > 100 µM | > 100 µM (inactive) | > 100 µM (inactive) | – | > 100 µM (inactive) | > 100 µM (inactive) | > 100 µM (inactive) | > 100 µM (inactive) | > 100 µM (inactive) | > 100 µM (inactive) | > 100 µM (inactive) | > 100 µM (inactive) | > 100 µM (inactive) | – | > 100 µM (inactive) | – | > 100 µM (inactive)
12 | COc1ccc2c(c1)c(CC(=O)O)c(C)n2C(=O)c1ccc(Cl)cc1 | – | > 100 µM (inactive) | > 100 µM (inactive) | > 100 µM | 4.42 µM (inactive) | 68.7 µM (inactive) | > 100 µM (inactive) | > 100 µM (inactive) | 98.2 µM (inactive) | > 100 µM (inactive) | 56.9 µM (inactive) | 16.3 µM (inactive) | 36.6 µM (inactive) | 43.1 µM (inactive) | 77.1 µM (inactive) | > 100 µM (inactive) | – | 39.9 µM (inactive) | – | 29.6 µM (inactive)
